IC50, Activity and inhibition data for three compounds are collected here from ChEMBL document CHEMBL5260810, “Inhibition of bromodomain-containing protein 9 for the prevention of epigenetically-defined drug resistance” (Bioorg Med Chem Lett, 2017).

The test system of one assay is SNU-475. Nature of the assay: Cytotoxicity against human SNU-475 cells measured after 3 days. It counts as functional, cell-based. The settings on record: SNU-475, 72 h.
Assay [1] can be described thus: Cytotoxicity against human HCC1493 cells measured after 3 days. In kind it is functional, cell-based. The settings on record: HCC1493, 72 h.
The next assay has as its system MCF-10A. Nature of the assay: Cytotoxicity against human MCF-10A cells measured after 3 days. The note with it: 72 h. It counts as functional, cell-based.
The subject of the next assay is IMR-32. Put plainly: Cytotoxicity against human IMR-32 cells measured after 3 days. It counts as functional, cell-based. The note with it: IMR-32, 72 h.
In the next assay the test system is OVCAR-8. Put plainly: Cytotoxicity against human OVCAR-8 cells measured after 3 days. It counts as functional, cell-based. The note with it: OVCAR-8, 72 h.
Assay [2] in a line: Cytotoxicity against human KMS-28PE cells measured after 3 days. It counts as functional, cell-based. The settings on record: 72 h.
The next assay has as its system CAL-85-1. Nature of the assay: Cytotoxicity against human CAL-85-1 cells measured after 3 days. In kind it is functional, cell-based. The settings on record: CAL-85-1, 72 h.
Assay [3] is described as follows: Cytotoxicity against human OVCAR433 cells measured after 3 days. In kind it is functional, cell-based. The note with it: OVCAR433, 72 h.
Another assay concerns NCI-H929. Put plainly: Cytotoxicity against human NCI-H929 cells measured after 3 days. It counts as functional, cell-based. The settings on record: NCI-H929, 72 h.
Assay [4] is described as follows: Cytotoxicity against human NCE-G 22 cells measured after 3 days. In kind it is functional, cell-based. The note with it: NCE-G 22, 72 h.
For the next assay, the system named is MDA-MB-415. Nature of the assay: Cytotoxicity against human MDA-MB-415 cells measured after 8 days. It counts as functional, cell-based. The note with it: MDA-MB-415, 192 h.
A further assay has as its system Calu-1. Nature of the assay: Cytotoxicity against human Calu-1 cells after 8 days. In kind it is functional, cell-based. The note with it: Calu-1, 192 h.
The nature of assay [5]: Cytotoxicity against human NCE-G 120 cells measured after 3 days. The settings on record: NCE-G 120, 72 h. It counts as functional, cell-based.
A short description of assay [6]: Cytotoxicity against human VP229 cells measured after 3 days. It counts as functional, cell-based. The settings on record: VP229, 72 h.
A further assay deals with NCI-H647. Put plainly: Cytotoxicity against human NCI-H647 cells measured after 3 days. It counts as functional, cell-based. The note with it: NCI-H647, 72 h.
A further assay concerns LP-1. Nature of the assay: Cytotoxicity against human LP-1 cells measured after 3 days. It counts as functional, cell-based. The note with it: LP-1, 72 h.
In the next assay the test system is SUD4. Put plainly: Cytotoxicity against human SU-DHL-4 cells measured after 3 days. The note with it: SU-DHL-4, 72 h. It counts as functional, cell-based.
The next assay has as its system U-937. Nature of the assay: Cytotoxicity against human U-937 cells measured after 3 days. In kind it is functional, cell-based. The settings on record: U-937, 72 h.
A short description of assay [7]: Cytotoxicity against human NCE-G 59 cells measured after 3 days. In kind it is functional, cell-based. The settings on record: NCE-G 59, 72 h.
For the next assay, the system named is ZR-75-1. Put plainly: Cytotoxicity against human ZR-75-1 cells measured after 8 days. The note with it: ZR-75-1, 192 h. In kind it is functional, cell-based.
The subject of the next assay is NCI-H1573. Nature of the assay: Cytotoxicity against human NCI-H1573 cells after 8 days. In kind it is functional, cell-based. The settings on record: NCI-H1573, 192 h.
The subject of a further assay is Ramos. Nature of the assay: Cytotoxicity against human Ramos cells measured after 3 days. The settings on record: 72 h. In kind it is functional, cell-based.
A further assay relates to SCC-3. Nature of the assay: Cytotoxicity against human SCC-3 cells measured after 3 days. It counts as functional, cell-based. The settings on record: SCC-3, 72 h.
The nature of assay [8]: Cytotoxicity against human Ci-1 cells measured after 3 days. The settings on record: Ci-1, 72 h. It counts as functional, cell-based.
The next assay relates to MX1. Nature of the assay: Cytotoxicity against human MX1 cells measured after 3 days. It counts as functional, cell-based. The note with it: MX1, 72 h.
Assay [9] is described as follows: Cytotoxicity against human OCI-M1 cells measured after 3 days. It counts as functional, cell-based. The settings on record: OCI-M1, 72 h.
The next assay has as its system HEL. Nature of the assay: Cytotoxicity against human HEL cells measured after 3 days. It counts as functional, cell-based. The settings on record: 72 h.
In a further assay the test system is BJAB. Nature of the assay: Cytotoxicity against human BJAB cells measured after 3 days. In kind it is functional, cell-based. The note with it: 72 h.
Assay [10] in a line: Cytotoxicity against human NCE-G 61 cells measured after 3 days. In kind it is functional, cell-based. The settings on record: NCE-G 61, 72 h.
The nature of assay [11]: Cytotoxicity against human KMS-34 cells measured after 3 days. In kind it is functional, cell-based. The settings on record: KMS-34, 72 h.
Assay [12] deals with Bromodomain-containing protein 4 (Homo sapiens, UniProt O60885). Put plainly: Binding affinity to BRD4 in human PC-9 cell lysate assessed as increase in thermal stabilization at 2 uM at 38 to 71 degreeC measured after 30 mins by CETSA. In kind it is subcellular.
Another assay concerns SW1573. Put plainly: Cytotoxicity against human SW1573 cells measured after 3 days. In kind it is functional, cell-based. The settings on record: SW1573, 72 h.
Assay [13] is described as follows: Cytotoxicity against human COV413B cells measured after 3 days. It counts as functional, cell-based. The note with it: 72 h.
Assay [14] in a line: Cytotoxicity against human COV413A cells measured after 3 days. It counts as functional, cell-based. The note with it: 72 h.
The next assay relates to PC-9. Nature of the assay: Antiproliferative activity against human PC-9 cells assessed as reduction in colony formation at 1 uM supplemented with fresh medium containing compound every 3 days by MTT staining based assay. It counts as functional, cell-based. The settings on record: time 9.0 day. In general terms: Tetrazolium dyes change colour on reduction, which living cells bring about.

Assay [15] can be described thus: Cytotoxicity against human NCI-H820 cells measured after 8 days. It counts as functional, cell-based. The note with it: NCI-H820, 192 h.
The nature of assay [16]: Cytotoxicity against human Li-7 cells measured after 3 days. In kind it is functional, cell-based. The note with it: Li-7, 72 h.
The subject of another assay is WSUDLCL2. Put plainly: Cytotoxicity against human WSUDLCL2 cells measured after 3 days. In kind it is functional, cell-based. The note with it: WSUDLCL2, 72 h.
A further assay concerns SR. Put plainly: Cytotoxicity against human SR cells measured after 3 days. In kind it is functional, cell-based. The settings on record: 72 h.
The nature of assay [17]: Cytotoxicity against human RMUG-S cells measured after 3 days. It counts as functional, cell-based. The settings on record: 72 h.
The test system of the next assay is NCI-H23. Nature of the assay: Antiproliferative activity against human NCI-H23 cells assessed as reduction in colony formation up to 20 uM supplemented with fresh medium containing compound every 3 days for 9 days by MTT staining based clonogenic assay. In kind it is functional, cell-based. The settings on record: time 9.0 day.
A further assay deals with Capan-2. Nature of the assay: Antiproliferative activity against human Capan-2 cells assessed as reduction in colony formation up to 20 uM supplemented with fresh medium containing compound every 3 days for 9 days by MTT staining based clonogenic assay. It counts as functional, cell-based. The note with it: time 9.0 day.
The subject of the next assay is HCC1954. Nature of the assay: Antiproliferative activity against human HCC1954 cells assessed as reduction in colony formation upto 20 uM supplemented with fresh medium containing compound every 3 days for 9 days by MTT staining based clonogenic assay. In kind it is functional, cell-based. The note with it: time 9.0 day.
A further assay relates to NB-4. Nature of the assay: Cytotoxicity against human NB-4 cells measured after 8 days. In kind it is functional, cell-based. The note with it: NB-4, 192 h.
Assay [18] concerns the target T1, Bromodomain-containing protein 9 (Homo sapiens) (UniProt Q9H8M2).
T1 sequence (whole entry): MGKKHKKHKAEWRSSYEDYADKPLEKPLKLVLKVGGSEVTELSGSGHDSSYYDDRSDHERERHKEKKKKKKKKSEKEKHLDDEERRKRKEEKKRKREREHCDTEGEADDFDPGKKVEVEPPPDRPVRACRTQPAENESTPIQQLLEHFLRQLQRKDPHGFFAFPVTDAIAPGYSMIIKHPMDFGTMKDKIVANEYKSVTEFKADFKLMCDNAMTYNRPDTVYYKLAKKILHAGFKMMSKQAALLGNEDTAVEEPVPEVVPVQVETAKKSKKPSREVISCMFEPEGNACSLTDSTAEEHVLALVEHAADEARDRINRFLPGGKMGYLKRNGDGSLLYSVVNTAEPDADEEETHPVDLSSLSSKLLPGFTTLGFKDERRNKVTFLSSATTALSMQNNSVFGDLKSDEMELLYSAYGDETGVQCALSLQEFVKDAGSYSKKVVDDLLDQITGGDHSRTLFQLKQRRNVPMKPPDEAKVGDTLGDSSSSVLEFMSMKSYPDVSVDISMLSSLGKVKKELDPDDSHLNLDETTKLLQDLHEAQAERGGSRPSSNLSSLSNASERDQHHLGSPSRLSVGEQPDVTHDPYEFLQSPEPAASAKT
Nature of the assay: Inhibition of BRD9 in human PC-9 cells assessed as reduction in ALDH1A1 gene expression at 2 uM preincubated with erlotinib for 8 days followed by compound addition and measured after 24 hrs by RNA sequencing analysis. It counts as cell-based.

Active and inactive are the calls of the source. No cut-off for these calls is given here.

Usually IC50 stands for the concentration that gives 50% inhibition. Low values mean higher potency, high ones lower potency. For the compound `C/C=C/Cn1cc(-c2cc(OC)c(C(=O)N3CCOCC3)cc2OC)c2cc(C)[nH]c2c1=O`, the IC50 (in the assay with SNU-475; in [1]; with MCF-10A; in the assay on IMR-32; in the assay with OVCAR-8; in assay [2]) was 5 µM in each case. In addition, the IC50 in the assay on CAL-85-1 was 5 µM; in assay [3], 5 µM; in the assay with NCI-H929 it was 5 µM; in assay [4], 5 µM; with MDA-MB-415, 2 µM; in the assay on Calu-1, 2 µM. Also, the IC50 (in assay [5]; in [6]; in the assay with NCI-H647; in the assay on LP-1; in the assay with SUD4; with U-937) was 5 µM each time. Also, the IC50 worked out at 5 µM in assay [7]; 2 µM in the assay on ZR-75-1; 2 µM in the assay with NCI-H1573; 5 µM with Ramos; 5 µM in the assay with SCC-3; 5 µM in assay [8]. Further, the IC50 (in the assay with MX1; in assay [9]; in the assay on HEL; in the assay on BJAB; in [10]; in assay [11]) was 5 µM each time. Besides, the IC50 amounted to 5 µM in the assay with SW1573; 5 µM in [13]; 5 µM in assay [14]; 2 µM in assay [15]; 5 µM in assay [16]; 5 µM in the assay on WSUDLCL2. The IC50 (with SR; in [17]) was 5 µM in each case. In addition, the result (in assay [12]; in the assay with PC-9) was inactive.
In the case of `C/C=C/Cn1cc(-c2ccc(C(C)(C)O)cc2OC)c2cc[nH]c2c1=O`, the result in the assay on NCI-H23 and with Capan-2 was inactive. For the same compound, the outcome with HCC1954 was Active. This compound also gave an IC50 with NB-4 of 20 µM.
For the compound `C/C=C/Cn1cc(-c2ccc(C(=O)N3CCOCC3)cc2)c2cc[nH]c2c1=O`, the inhibition result in assay [18] was “Active”.
